Test results from PMC10610134, “Verubulin (Azixa) Analogues with Increased Saturation: Synthesis, SAR and Encapsulation in Biocompatible Nanocontainers Based on Ca^2+ or Mg^2+ Cross-Linked Alginate” (Pharmaceuticals, 2023).
Where two headings read alike, the source gives them in different places.

Assays:
[1] = system: tubulin (Tb) and microtubule-associated proteins (MAPs) from mouse brains; test: Tubulin + MAP polymerization assay; assay type: biochemical; conditions: GTP-dependent polymerization, read-out: IC50 of tubulin polymerization (initial rates, optical density at 355 nm)
[2] = system: human breast cancer cell line MCF7′; test: MTT cytotoxicity assay, MCF7′; assay type: cell-based; conditions: read-out: IC50, nM MCF7′
Text: (§1) The obtained series of verubulin analogues 2a–r (which also included three by-products isolated in the reactions according to Scheme 2) were initially evaluated for cytotoxicity against commonly used human breast cancer cell line MCF7′ (fast-growth subclone), human lung epithelial carcinoma cell line A549 and etiologically non-cancer immortalized lung fibroblast cell line VA13 (WI38 subline 2RA). Cytotoxicity against immortalized human embryonic kidney cell line HEK293T, characterized by a high growth rate, was also studied regarding cytotoxicity against non-cancerous fast-growth cells. A standard MTT assay was performed; verubulin (1) served as a positive reference. The data obtained are presented in Table 1 (for dose–response curves, see Supplementary Materials).
(§2) Human breast cancer cell line MCF7′ and human lung adenocarcinoma cell line A549 were kindly provided by Dr. S. Dmitriev (Lomonosov Moscow State University), immortalized human fibroblast cell line VA13 (WI38 subline 2RA) was kindly provided by Dr. M. Rubtsova (Lomonosov Moscow State University), human embryonic kidney HEK293T cell line was kindly provided by Dr. E. Knyazhanskaya (Lomonosov Moscow State University). MCF7′, VA13, A549 and HEK293T cell lines were maintained in DMEM/F-12 (Thermo Fisher Scientific, Waltham, MA, USA) culture medium containing 10% fetal bovine serum (Thermo Fisher Scientific, Waltham, MA, USA) and 50 μg/mL penicillin and 0.05 mg/mL streptomycin at 37 °C (Thermo Fisher Scientific, Waltham, MA, USA) in 5% CO2. Cells were maintained at 37 °C in a humidified MCO-18AC incubator (Sanyo, Tokyo, Japan) supplied with 5% CO2. Cell cultures were tested for the absence of mycoplasma and validated by STR.
(§3) The cytotoxicity of the substances was tested using the 3-(4,5-dimethylthiazol-2-yl)2,5-diphenyl tetrazolium bromide (MTT) assay with some modifications. A total of 2500 cells per well for the MCF7′, HEK293T, A549 cell lines or 4000 cells per well for the VA-13 cell line were plated out in 135 μL of DMEM-F12 media (Gibco, Thermo Fisher Scientific, Waltham, MA, USA) in a 96-well plate and incubated in the 5% CO2 incubator for the first 20 h without treatment. Then, 15.8 μL of media–DMSO solutions of tested substances (final DMSO concentrations in the media were 0.5% or less) was added to the cells (triplicate each) and cells were treated for 64 h with 0.023 mg/L–50 mg/L (eight dilutions) of compounds 2f,n,o,r; 1.14 μg/L–2.5 mg/L (eight dilutions) of compounds 2a,b,d,g,h,k,l,p,q; 57.2 ng/L–125 μg/L (eight dilutions) of compounds 2e,i,j; 22.9 ng/L–50 μg/L (eight dilutions) of compounds 1,2c,m. Doxorubicin was used as a control substance. Then, the MTT reagent (Paneco LLC, Moscow, Russia) was added to cells up to a final concentration of 0.5 g/L (10 × stock solution in PBS was used) and incubated for 2 h at 37 °C in the incubator, under an atmosphere of 5% CO2. Then, the MTT solution was discarded, and 140 μL of DMSO (PharmaMed LLC, Moscow, Russia) was added. The plates were swayed on a shaker (120 rpm) to dissolve the formazan. The absorbance was measured using a microplate reader (VICTOR X5 Light Plate Reader, PerkinElmer, Waltham, MA, USA) at a wavelength of 555 nm (in order to measure formazan concentration). The results were used to construct dose–response graphs and to estimate IC50 values (IC50 is the concentration resulting in half of the maximal cytotoxic effect) with GraphPad Prism V, GraphPadSoftware, Inc., San Diego, CA, USA.

[3] = system: human lung epithelial carcinoma cell line A549; test: MTT cytotoxicity assay, A549; assay type: cell-based; conditions: read-out: IC50, nM A549
Text: as §1, §2, §3

[4] = system: microtubules in carcinoma A549 cells; test: Immunofluorescent microscopy of microtubules; assay type: cell-based, human; conditions: 24 h, A549
Method: Since verubulin is known to stimulate microtubule disassociation, we performed an immunofluorescent microscopy study to determine the response of microtubule dynamics in carcinoma A549 cells to the treatment with representative compounds 2b,c,e. […] Aberrant cell morphology—contraction and rounding (Figure 2A,B) or contraction and elongation (Figure 2C)—was also observed.
A549 cells were seeded on coverslips (treated with poly-l-lysine at a concentration of 33 mg/L for an hour). Compounds were added up to the corresponding concentration after 24 h attachment and growth of the cells. Then, cells were incubated 24 h.
The cells were fixed with methanol (precooled in liquid nitrogen for 20 min), no additional permeabilization was performed. To prevent non-specific binding, cells were incubated with 4% BSA in PBS for one hour. Then, a solution of mouse monoclonal antibodies against alpha-tubulin cross-linked with Alexa 488 fluoroform (Thermo Fisher Scientific, Waltham, MA, USA, 32-2588) at a concentration of 5 μg/mL in 1% BSA solution in PBS was added to the cells, and the slides were incubated at +5 °C in a water chamber for 24 h. After the end of the incubation time, the cells were washed several times with PBS buffer solution and fixed on a glass slide with Moviol. Next day, cells were imaged with a ZEISS LSM 900 (ZEISS Microscopy, GmbH, Germany) and images processed with ImageJ.

[5] = system: immortalized human embryonic kidney cell line HEK293T; test: MTT cytotoxicity assay, HEK293T; assay type: cell-based; conditions: HEK-293T, read-out: IC50, nM HEK293T
Text: as §1, §2, §3

[6] = system: immortalized lung fibroblast cell line VA13 (WI38 subline 2RA); test: MTT cytotoxicity assay, VA13; assay type: cell-based; conditions: Homo sapiens, read-out: IC50, nM VA13
Text: as §1, §2, §3

HCT116 cell line = test: MTT cytotoxicity towards HCT116; assay type: cell-based, human; conditions: HCT-116
A549 = conditions: cited from earlier work
HCT116 cells = test: Apoptosis induction, Annexin V / 7-AAD flow cytometry; assay type: cell-based, human; conditions: for Live (viable cells): human, 48 h
Method: Apoptosis is an important and active regulatory pathway of cell growth and proliferation. Annexin V is a calcium-dependent phospholipid-binding protein with a high affinity for phosphatidylserine (PS), a membrane component normally localized to the internal face of the cell membrane. Early in the apoptotic pathway, molecules of PS are translocated to the outer surface of the cell membrane where Annexin V can readily bind them.
After incubation, the cells were harvested by trypsinization, precipitated by centrifugation (3000 rpm), washed with cold PBS and recentrifuged. Aliquots of cells were processed as recommended in the Muse Annexin V& Dead Cell Kit (Luminex Corporation, Austin, TX, USA). The results were recorded on a Muse Cell Analyzer flow cytometer (Merck, Rahway, NJ, USA).

[7] = system: MCF7′, A549, VA13, HEK293T cell lines; test: MTT cytotoxicity, SAR statements over the cell line panel; assay type: cell-based, human; conditions: pair A549/VA13
Text: as §1, §3

MCF7/MCF10A = system: MCF7/MCF10A; design: method as in PMID 36802449; conditions: cited from earlier work
[8] = HCT116, human colon carcinoma, read-out: IC50
[9] = 2 × IC50, 48 h, HCT116, listed as verubulin (1)

Compound | IC50 ([2]; MCF7, 64 h treatment, MTT) | IC50 ([3]; A549, 64 h treatment, MTT) | IC50 ([5]; 64 h treatment, MTT) | IC50 ([6]; VA-13, 64 h treatment, MTT) | IC50 (HCT116 cell line; [8]) | Live (viable cells) (HCT116 cells) | IC50 (A549) | further results
COc1ccc2c(c1)CCCN2c1nc(C)nc2c1CCCC2 [Compound 2e, 4-(6-Methoxy-3,4-dihydroquinolin-1(2H)-yl)-2-methyl-5,6,7,8-tetrahydroquinazoline] | 12.6 ± 2.1 nM | 13.5 ± 2.2 nM | 8.8 ± 2 nM | 7.1 ± 2 nM | 22 ± 5 nM | – | – | IC50 [1]: 26 ± 6 µM; effect on microtubules (MTs) ([4]; 10 μM): full depolymerization of MTs; effect on microtubules ([4]; 5–10 μM): pronounced or complete disruption of microtubules
COc1ccc2c(c1)CCCN2c1nc(C)nc2ccccc12 [Wang 2013] | – | – | – | – | – | – | – | GI50 (A549): 17.8 nM
COc1ccc2c(c1)CCCN2c1nc(N)nc2c1CCCC2 [Compound 2j, 2-Amino-4-(6-methoxy-3,4-dihydroquinolin-1(2H)-yl)-5,6,7,8-tetrahydroquinazoline] | 40.2 ± 7.8 nM | 50.5 ± 11.1 nM | 28.9 ± 6.6 nM | 14.5 ± 3.9 nM | 160 ± 30 nM | 30.81% | – | Early Apop. (Annexin V (+), 7-AAD (−)) (HCT116 cells; 2 × IC50, 48 h, HCT116): 56.4%
COc1ccc(N(C)c2nc(C)nc3ccccc23)cc1 [Compound 1, Verubulin] | – | – | – | – | – | – | 5 nM | selectivity towards tumor cells [7]: no selectivity; IC50 [1]: 3.1 ± 1.1 µM; apoptotic cells, early plus late (HCT116 cells; 2 × IC50, 48 h, HCT116): 49.3%; Early Apop. (Annexin V (+), 7-AAD (−)) (HCT116 cells; [9]): 16.3%; Late Apop./Dead (Annexin V (+), 7-AAD (+)) (HCT116 cells; [9]): 33%; IC50 ([2]; MCF7, 64 h): 1.4 ± 0.05 nM; IC50 ([3]; A549, 64 h): 1.1 ± 0.05 nM; IC50 ([5]; 64 h): 1 ± 0.02 nM; IC50 ([6]; VA-13, 64 h): 0.84 ± 0.06 nM; IC50 (HCT116 cell line; Homo sapiens): 3.2 ± 0.7 nM
COc1ccc(N(C)c2nc(Cl)nc3c2CCCC3)cc1 [Compound 2m, 2-Chloro-N-(4-methoxyphenyl)-N-methyl-5,6,7,8-tetrahydroquinazolin-4-amine] | 3.3 ± 0.14 nM | 3 ± 0.2 nM | 2.7 ± 0.12 nM | 1.3 ± 0.18 nM | 1.8 ± 0.1 nM | 52.58% | – | selectivity towards tumor cells [7]: no selectivity; selectivity in the pair MCF7/MCF10A (MCF7/MCF10A): selective
COc1ccc2c(c1)NC(=O)CN2c1nc(C)nc2c1CCC2 [Banerjee 2021] | – | – | – | – | – | – | 4.5 nM | –
COc1ccc(N(C)c2nc(Cl)nc3c2CCCC3)cc1 [Tan 2023] | – | – | – | – | – | – | 4.7 nM | –
COc1ccc(N(C)c2nc(N)nc3c2CCCC3)cc1 [Compound 2i, N^4-(4-Methoxyphenyl)-N^4-methyl-5,6,7,8-tetrahydroquinazolinyl-2,4-diamine] | 10.2 ± 1.5 nM | 15 ± 2 nM | 9.6 ± 2.2 nM | 6 ± 1.5 nM | 40 ± 10 nM | 43.99% | – | Early Apop. (Annexin V (+), 7-AAD (−)) (HCT116 cells; 2 × IC50, 48 h, HCT116): 46.3%
